Results on one molecule are retold here after patent US20040086536A1, “Therapeutic agents and treatment kits for hypertrophic pyloric stenosis” (priority 2002, published 2004).

The subject of assay [1] is hypertrophic pyloric stenosis. The conditions noted are these: cited from earlier work.
Assay [2] concerns hypertrophic pyloric stenosis. The assay can be described thus: Treatment of infantile patients with hypertrophic pyloric stenosis (disappearance of vomiting, hospitalization). The following applies: atropine sulfate 0.1 mg/kg/day iv.
Procedure: In the present treating examples, a solution for intravenous injection of atropine sulfate was used as the anticholinergic agent and a nitroglycerin patch was used as the NO donor.
After confirming that the pH and electrolytes in the blood restore in the normal ranges in individual infantile patients, a daily dosage of atropine sulfate (0.1 mg/kg/day) was divided by the number of milk feeding and the divided dosage of atropine sulfate was administered intravenously 10 minutes before each milk feeding over 3 minutes or longer. Except in the cases where abnormally strong side effects were produced, the dosage amounts for subsequent intravenous injections were not changed principally. […] The minimum dosage amount is 0.04 mg/kg/day.
In parallel with the atropine sulfate intravenous injection, a nitroglycerin transdermal patch (Millisrol Tape (registered trademark)): 5 mg/patch: Nippon Kayaku Co., Ltd.; or Minitro Tape (registered trademark): 5 mg/patch: Nisshin-Kyorin Pharmaceutical Co., Ltd.) was used. […]
To prevent the occurrence of aspiration pneumonia induced by vomiting and the induction of contraction of gastric smooth muscles and pyloric sphincters, isotonic drinking solution was fed orally as the infantile patient wanted until the vomiting subsided. […] The body weight and the daily amount of milk intake were measured every day. […]

Where a name gives a salt, the structure may show the parent alone.

Take `CN1[C@@H]2CC[C@H]1C[C@@H](OC(=O)C(CO)c1ccccc1)C2` (some centres unmarked) [atropine sulfate (iv.), atropine sulfate]: in assay [1] (atropine sulfate therapy, contraction of the pyloric muscle often reappears afterward), the “time for which the spasm disappears after the administration” value is 20 to 30 min. Moreover, the effectiveness of treatment entry in assay [1] (intravenous injection, needs long term hospitalization) is listed as “high”. The “effectiveness rate of treatment” value in assay [1] (oral administration) was “less than 50%”. In assay [2], the “Duration of vomiting (onset of action) after the initiation of the treatment” value was determined as 5 ± 2 days and the duration of hospitalization was found to be 9 ± 2 days.
